Assay in all cases: kinome screen (33PanQinase)
What all share (type): biochemical

In one experiment the target is T1, ACVR2A (Homo sapiens, UniProt P27037).
T1 construct: purchased Reaction Biology Europe GmbH (formerly ProQinase)
On the procedure:
(§1) The Kinome Screening was performed by Reaction Biology Europe GmbH (http://reactionbiology.com; Freiburg i. Br., Germany).

Another experiment addresses T2, AMPKα1 (Homo sapiens, UniProt Q13131).
T2 construct: purchased Reaction Biology Europe GmbH (formerly ProQinase)
Here is the method: as §1

For a further experiment, the target named is T3, HCK (Homo sapiens, UniProt P08631).
T3 construct: purchased Reaction Biology Europe GmbH (formerly ProQinase)
T3 sequence (P08631 whole entry): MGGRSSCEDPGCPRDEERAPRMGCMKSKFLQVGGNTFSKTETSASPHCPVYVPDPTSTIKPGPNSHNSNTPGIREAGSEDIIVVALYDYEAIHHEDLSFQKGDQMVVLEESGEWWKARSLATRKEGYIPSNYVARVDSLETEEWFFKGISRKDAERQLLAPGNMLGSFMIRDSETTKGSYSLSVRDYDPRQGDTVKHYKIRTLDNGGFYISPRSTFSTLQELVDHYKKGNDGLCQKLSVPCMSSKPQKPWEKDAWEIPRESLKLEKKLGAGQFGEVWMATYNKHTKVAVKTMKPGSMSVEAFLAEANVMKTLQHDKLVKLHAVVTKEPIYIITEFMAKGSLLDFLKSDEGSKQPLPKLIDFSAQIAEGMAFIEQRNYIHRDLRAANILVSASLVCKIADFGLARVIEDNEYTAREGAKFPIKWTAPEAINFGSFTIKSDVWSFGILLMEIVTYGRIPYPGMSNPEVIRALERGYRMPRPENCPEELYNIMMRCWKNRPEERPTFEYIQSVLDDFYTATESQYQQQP
On the procedure: as §1

In another experiment the target is T4, HIPK3 (Homo sapiens, UniProt Q9H422).
T4 construct: purchased Reaction Biology Europe GmbH (formerly ProQinase)
T4 sequence (Q9H422 whole entry): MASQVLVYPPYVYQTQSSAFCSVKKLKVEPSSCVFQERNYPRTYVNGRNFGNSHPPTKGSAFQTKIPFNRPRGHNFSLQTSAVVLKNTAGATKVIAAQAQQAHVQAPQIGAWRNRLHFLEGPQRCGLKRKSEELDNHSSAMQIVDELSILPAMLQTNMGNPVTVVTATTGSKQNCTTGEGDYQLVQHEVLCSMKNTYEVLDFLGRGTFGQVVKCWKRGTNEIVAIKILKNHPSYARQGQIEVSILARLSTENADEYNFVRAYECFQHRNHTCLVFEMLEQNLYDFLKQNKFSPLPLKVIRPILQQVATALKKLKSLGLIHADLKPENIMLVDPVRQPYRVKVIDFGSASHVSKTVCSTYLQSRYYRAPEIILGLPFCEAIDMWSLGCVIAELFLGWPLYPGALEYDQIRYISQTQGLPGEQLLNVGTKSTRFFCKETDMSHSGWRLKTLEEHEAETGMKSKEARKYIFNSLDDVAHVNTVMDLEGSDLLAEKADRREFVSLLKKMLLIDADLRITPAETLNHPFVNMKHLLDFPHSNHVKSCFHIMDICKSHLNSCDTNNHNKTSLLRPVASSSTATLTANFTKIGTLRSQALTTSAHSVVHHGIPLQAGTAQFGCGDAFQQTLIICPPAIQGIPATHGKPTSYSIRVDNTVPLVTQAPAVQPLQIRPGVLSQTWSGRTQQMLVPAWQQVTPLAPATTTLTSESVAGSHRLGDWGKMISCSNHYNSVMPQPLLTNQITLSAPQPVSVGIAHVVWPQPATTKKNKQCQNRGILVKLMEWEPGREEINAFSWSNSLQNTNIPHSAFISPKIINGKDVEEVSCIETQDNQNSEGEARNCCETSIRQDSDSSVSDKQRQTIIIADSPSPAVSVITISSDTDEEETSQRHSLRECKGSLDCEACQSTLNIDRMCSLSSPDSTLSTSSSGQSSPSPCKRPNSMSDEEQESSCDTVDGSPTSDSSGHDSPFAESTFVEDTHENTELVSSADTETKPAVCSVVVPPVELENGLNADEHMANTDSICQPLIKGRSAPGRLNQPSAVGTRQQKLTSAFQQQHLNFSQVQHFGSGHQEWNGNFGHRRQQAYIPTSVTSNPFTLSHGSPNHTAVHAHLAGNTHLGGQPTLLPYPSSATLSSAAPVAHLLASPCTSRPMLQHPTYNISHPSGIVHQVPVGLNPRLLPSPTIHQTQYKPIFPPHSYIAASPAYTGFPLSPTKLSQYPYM
Here is the method: as §1

The target of the next experiment is T5, JNK2 (Homo sapiens, UniProt P45984).
T5 construct: purchased Reaction Biology Europe GmbH (formerly ProQinase)
Here is the method: as §1

For the next experiment, the target named is T6, MEK5 (Homo sapiens, UniProt Q13163).
T6 construct: purchased Reaction Biology Europe GmbH (formerly ProQinase)
T6 sequence (Q13163 1-448): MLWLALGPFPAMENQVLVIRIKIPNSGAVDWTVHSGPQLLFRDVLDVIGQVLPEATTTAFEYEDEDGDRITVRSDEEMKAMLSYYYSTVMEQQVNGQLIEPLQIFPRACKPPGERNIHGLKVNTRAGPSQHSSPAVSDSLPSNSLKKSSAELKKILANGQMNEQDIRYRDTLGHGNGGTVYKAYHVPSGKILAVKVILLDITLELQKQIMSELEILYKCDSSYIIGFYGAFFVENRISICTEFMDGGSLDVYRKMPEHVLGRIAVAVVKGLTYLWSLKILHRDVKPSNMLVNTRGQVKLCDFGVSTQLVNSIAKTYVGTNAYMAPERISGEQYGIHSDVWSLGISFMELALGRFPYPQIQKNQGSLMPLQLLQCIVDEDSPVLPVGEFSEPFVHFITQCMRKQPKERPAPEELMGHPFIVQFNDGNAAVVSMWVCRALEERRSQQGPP
Here is the method: as §1

A further experiment has as its target T7, PAK6 (Homo sapiens, UniProt Q9NQU5).
T7 construct: purchased Reaction Biology Europe GmbH (formerly ProQinase)
Here is the method: as §1

A further experiment addresses T8, PKCη (Homo sapiens, UniProt P24723).
T8 construct: purchased Reaction Biology Europe GmbH (formerly ProQinase)
Here is the method:
as §1

Another experiment has as its target T9, PKCμ (Homo sapiens, UniProt Q15139).
T9 construct: purchased Reaction Biology Europe GmbH (formerly ProQinase)
T9 sequence (Q15139 1-912): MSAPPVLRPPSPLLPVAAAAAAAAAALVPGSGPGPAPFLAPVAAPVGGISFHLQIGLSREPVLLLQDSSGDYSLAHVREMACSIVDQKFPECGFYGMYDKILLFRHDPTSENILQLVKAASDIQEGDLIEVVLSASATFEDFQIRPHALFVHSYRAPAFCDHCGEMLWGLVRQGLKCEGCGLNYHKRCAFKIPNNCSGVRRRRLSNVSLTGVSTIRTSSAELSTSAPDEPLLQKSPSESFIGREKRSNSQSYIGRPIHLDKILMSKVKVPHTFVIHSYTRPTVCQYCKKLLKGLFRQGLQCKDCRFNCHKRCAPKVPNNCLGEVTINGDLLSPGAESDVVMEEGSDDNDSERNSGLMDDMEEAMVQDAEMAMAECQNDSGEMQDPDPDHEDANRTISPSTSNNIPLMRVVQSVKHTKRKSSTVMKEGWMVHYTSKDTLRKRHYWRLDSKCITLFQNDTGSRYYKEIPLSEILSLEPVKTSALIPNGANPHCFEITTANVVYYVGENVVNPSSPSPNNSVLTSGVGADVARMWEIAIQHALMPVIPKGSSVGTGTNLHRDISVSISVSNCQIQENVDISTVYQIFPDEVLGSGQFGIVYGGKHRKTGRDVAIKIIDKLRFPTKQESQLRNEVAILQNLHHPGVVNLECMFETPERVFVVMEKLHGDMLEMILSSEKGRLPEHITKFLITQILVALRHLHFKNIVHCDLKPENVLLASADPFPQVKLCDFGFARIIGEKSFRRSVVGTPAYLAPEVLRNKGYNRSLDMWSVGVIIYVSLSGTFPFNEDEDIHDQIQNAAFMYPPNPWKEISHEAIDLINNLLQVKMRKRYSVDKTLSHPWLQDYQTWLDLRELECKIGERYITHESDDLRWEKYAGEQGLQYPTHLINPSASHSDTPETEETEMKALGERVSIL
On the procedure: as §1

The target in a further experiment is T10, WNK3 (Homo sapiens, UniProt Q9BYP7).
T10 construct: purchased Reaction Biology Europe GmbH (formerly ProQinase)
T10 sequence (Q9BYP7 whole entry): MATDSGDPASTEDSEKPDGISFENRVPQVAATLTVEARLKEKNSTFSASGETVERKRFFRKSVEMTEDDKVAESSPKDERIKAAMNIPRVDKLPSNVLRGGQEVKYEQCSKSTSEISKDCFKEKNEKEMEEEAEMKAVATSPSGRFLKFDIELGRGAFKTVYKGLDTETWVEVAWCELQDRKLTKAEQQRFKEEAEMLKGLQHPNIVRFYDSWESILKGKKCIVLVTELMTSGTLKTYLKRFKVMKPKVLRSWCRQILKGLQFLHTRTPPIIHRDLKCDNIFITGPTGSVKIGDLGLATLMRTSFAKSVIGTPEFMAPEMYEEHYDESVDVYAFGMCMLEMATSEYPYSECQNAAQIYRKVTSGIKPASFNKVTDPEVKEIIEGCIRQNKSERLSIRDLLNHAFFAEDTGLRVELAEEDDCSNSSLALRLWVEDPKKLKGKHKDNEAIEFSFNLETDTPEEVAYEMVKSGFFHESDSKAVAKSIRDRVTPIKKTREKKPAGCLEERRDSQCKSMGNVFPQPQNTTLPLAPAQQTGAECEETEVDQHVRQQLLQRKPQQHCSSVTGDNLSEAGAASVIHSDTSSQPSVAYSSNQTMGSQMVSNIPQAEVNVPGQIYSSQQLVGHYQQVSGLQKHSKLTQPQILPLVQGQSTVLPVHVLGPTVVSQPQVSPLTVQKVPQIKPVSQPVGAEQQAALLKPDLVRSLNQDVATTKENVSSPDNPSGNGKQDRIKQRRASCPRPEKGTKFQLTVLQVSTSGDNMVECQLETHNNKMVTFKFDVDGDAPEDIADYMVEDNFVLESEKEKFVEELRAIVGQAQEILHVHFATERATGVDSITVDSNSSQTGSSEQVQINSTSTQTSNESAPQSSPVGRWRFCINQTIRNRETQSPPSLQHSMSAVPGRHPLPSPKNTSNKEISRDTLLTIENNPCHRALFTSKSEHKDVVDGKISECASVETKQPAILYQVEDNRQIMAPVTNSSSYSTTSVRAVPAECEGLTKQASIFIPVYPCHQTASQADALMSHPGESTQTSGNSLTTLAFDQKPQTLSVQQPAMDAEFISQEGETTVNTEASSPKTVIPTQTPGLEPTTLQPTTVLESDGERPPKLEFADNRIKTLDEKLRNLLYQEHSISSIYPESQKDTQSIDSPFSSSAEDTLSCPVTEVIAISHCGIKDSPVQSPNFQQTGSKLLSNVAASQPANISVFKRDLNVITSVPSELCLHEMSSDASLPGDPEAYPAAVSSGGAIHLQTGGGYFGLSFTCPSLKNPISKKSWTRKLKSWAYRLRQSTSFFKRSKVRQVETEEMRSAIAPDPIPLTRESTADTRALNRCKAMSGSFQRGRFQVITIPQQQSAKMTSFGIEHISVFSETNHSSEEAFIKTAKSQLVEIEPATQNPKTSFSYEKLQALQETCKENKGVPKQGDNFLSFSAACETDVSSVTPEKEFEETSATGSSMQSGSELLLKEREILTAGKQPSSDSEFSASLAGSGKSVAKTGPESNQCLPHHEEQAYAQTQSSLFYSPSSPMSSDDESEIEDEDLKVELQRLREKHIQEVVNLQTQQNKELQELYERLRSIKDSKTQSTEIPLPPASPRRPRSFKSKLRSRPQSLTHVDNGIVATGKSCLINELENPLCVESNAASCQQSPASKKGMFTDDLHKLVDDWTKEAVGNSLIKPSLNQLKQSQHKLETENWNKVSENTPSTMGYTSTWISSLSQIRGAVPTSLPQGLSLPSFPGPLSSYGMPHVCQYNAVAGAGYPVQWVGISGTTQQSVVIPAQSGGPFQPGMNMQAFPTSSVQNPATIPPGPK
On the procedure: as §1

The target in another experiment is T11, p38α (Homo sapiens, UniProt Q16539).
T11 construct: purchased Reaction Biology Europe GmbH (formerly ProQinase)
T11 sequence (Q16539 whole entry): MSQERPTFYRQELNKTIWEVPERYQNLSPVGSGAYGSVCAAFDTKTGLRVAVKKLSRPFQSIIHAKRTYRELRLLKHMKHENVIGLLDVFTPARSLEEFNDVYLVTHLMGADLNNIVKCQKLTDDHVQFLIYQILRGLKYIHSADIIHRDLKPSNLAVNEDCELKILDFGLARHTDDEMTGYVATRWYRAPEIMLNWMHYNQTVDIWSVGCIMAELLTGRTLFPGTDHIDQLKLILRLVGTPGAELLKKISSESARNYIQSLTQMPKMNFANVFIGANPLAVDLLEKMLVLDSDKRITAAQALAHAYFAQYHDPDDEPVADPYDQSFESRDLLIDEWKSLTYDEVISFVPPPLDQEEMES
On the procedure:
as §1

This note sets out measurements from article PMC11167047 (Cell Death Discovery, 2024).

Structures are written as SMILES.

T7 sequence (Q9NQU5 whole entry): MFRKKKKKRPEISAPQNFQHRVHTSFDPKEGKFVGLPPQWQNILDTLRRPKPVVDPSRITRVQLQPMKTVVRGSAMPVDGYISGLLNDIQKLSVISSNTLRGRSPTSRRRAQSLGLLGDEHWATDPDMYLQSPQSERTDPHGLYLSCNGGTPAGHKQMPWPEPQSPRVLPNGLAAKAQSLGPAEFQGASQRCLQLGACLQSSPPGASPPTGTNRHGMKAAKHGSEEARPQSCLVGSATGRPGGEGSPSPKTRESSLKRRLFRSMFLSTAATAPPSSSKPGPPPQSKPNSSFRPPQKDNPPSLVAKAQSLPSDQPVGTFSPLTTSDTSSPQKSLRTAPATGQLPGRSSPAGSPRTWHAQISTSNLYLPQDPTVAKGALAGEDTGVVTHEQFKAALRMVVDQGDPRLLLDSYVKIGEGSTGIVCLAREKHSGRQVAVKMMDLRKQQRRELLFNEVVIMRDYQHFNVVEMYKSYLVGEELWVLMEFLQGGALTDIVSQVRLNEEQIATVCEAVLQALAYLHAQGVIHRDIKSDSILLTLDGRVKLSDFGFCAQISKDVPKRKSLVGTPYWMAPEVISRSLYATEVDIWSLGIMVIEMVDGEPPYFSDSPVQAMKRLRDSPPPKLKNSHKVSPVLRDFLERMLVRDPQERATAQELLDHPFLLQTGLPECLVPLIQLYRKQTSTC
T1 sequence (P27037 20-513): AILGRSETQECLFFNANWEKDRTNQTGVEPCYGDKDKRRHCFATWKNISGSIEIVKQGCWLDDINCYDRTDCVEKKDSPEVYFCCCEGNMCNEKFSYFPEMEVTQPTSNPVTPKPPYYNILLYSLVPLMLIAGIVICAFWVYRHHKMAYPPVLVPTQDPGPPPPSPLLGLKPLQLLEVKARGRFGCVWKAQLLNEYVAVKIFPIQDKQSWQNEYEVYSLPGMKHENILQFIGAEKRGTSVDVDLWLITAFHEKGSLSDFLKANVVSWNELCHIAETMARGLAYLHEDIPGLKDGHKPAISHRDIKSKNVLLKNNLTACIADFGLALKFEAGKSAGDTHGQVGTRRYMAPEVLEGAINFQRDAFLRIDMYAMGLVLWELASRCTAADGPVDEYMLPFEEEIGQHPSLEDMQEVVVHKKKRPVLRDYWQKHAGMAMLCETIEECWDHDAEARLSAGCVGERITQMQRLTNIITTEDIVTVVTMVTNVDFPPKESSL

For `COc1ccnc2[nH]cc(-c3cc(N)nc(N)c3)c12` [meriolin 16], the residual kinase activity is on record as 103 % of control on ACVR2A (0.03 µM); 103 % of control at ACVR2A (0.3 µM); 108 % of control on AMPKα1 (0.03 µM); 78 % of control on AMPKα1 (0.3 µM); 106 % of control at HCK (0.03 µM); 81 % of control at HCK (0.3 µM). The residual kinase activity on HIPK3 (0.03 µM) is 53 % of control; at HIPK3 (0.3 µM), 7 % of control; on JNK2 (0.03 µM), 78 % of control; on JNK2 (0.3 µM), 85 % of control; at MEK5 (0.03 µM), 35 % of control; on MEK5 (0.3 µM) it was 31 % of control. In addition, the residual kinase activity at PAK6 (0.03 µM) was 88 % of control; on PAK6 (0.3 µM), 76 % of control; at PKCη (0.03 µM) it was 8 % of control; at PKCη (0.3 µM), 2 % of control; at PKCμ (0.03 µM) it was 77 % of control; at PKCμ (0.3 µM), 24 % of control. For the same compound, the residual kinase activity is 85 % of control at WNK3 (0.03 µM), 85 % of control at WNK3 (0.3 µM), 94 % of control at p38α (0.03 µM) and 74 % of control on p38α (0.3 µM).

In the case of `c1ccc(CNc2cc(-c3c[nH]c4ncccc34)ccn2)cc1` [meriolin 36], the residual kinase activity on ACVR2A (0.3 µM) is given as 94 % of control; on ACVR2A (3 µM), 47 % of control; at AMPKα1 (0.3 µM) it was 57 % of control; at AMPKα1 (3 µM) it was 9 % of control; at HCK (0.3 µM), 75 % of control; at HCK (3 µM) it was 25 % of control. The residual kinase activity is listed as 45 % of control on HIPK3 (0.3 µM); 11 % of control at HIPK3 (3 µM); 63 % of control at JNK2 (0.3 µM); 29 % of control at JNK2 (3 µM); 30 % of control at MEK5 (0.3 µM); 12 % of control on MEK5 (3 µM). The residual kinase activity on PAK6 (0.3 µM) was 54 % of control; on PAK6 (3 µM) it was 14 % of control; at PKCη (0.3 µM), 2 % of control; on PKCη (3 µM), 2 % of control; at PKCμ (0.3 µM), 63 % of control; at PKCμ (3 µM), 23 % of control. For the same compound, the residual kinase activity at WNK3 (0.3 µM) is listed as 106 % of control; on WNK3 (3 µM), 104 % of control; on p38α (0.3 µM) it was 78 % of control; on p38α (3 µM), 80 % of control.
